From the supplement of paper PMC9938120

Legend:
Assay in all cases: drug sensitivity score (DSS3, normalised partial AUC of % inhibition dose-response) (DSS (score)); higher = more sensitive (stronger inhibition of viability); extreme values may be limits of the assay
FMOC06 = patient-derived mucinous ovarian cancer cells; details: 72 h; library: FO5A; assay format: 2D, 384-well, CellTiter-Glo
Procedure, shortened: (§1)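 The drug sensitivity score is calculated as a partial area under the percent-inhibition dose-response curve, divided by the log of the upper asymptote; higher scores mean more sensitive. For this score, early-passage (under 10) patient-derived ovarian cancer cells were exposed on 384-well flat clear-bottom plates to compounds at five concentrations across a 10,000-fold range for 72 h at 37 °C, 5% CO2. Viability was read with CellTiter-Glo and processed in Breeze.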

FMOC11 = patient-derived high-grade serous ovarian cancer cells; details: 72 h; library: FO5A; assay format: 2D, 384-well, CellTiter-Glo
Procedure, shortened: as §1

FMOC24 = patient-derived high-grade serous ovarian cancer cells; details: 72 h; library: FO5A; assay format: 2D, 384-well, CellTiter-Glo
Procedure, shortened: as §1

FMOC17 = patient-derived low-grade serous ovarian cancer cells; details: 72 h; library: FO5A; assay format: 2D, 384-well, CellTiter-Glo
Procedure, shortened: as §1

FMOC27 = patient-derived low-grade serous ovarian cancer cells; details: 72 h; library: FO5A; assay format: 2D, 384-well, CellTiter-Glo
Procedure, shortened: as §1

FMOC02_3 = patient-derived low-grade serous ovarian cancer cells; details: 72 h; library: FO5A; assay format: 2D, 384-well, CellTiter-Glo
Procedure, shortened: as §1

FMOC28 = patient-derived low-grade serous ovarian cancer cells; details: 72 h; library: FO5A; assay format: 2D, 384-well, CellTiter-Glo
Procedure, shortened: as §1

FMOC25_2 = patient-derived low-grade serous ovarian cancer cells; details: 72 h; library: FO5A; assay format: 2D, 384-well, CellTiter-Glo
Procedure, shortened: as §1

FMOC22 = patient-derived mucinous ovarian cancer cells; details: 72 h; library: FO5A; assay format: 2D, 384-well, CellTiter-Glo
Procedure, shortened: as §1

FMOC03 = patient-derived mucinous ovarian cancer cells; details: 72 h; library: FO5A; assay format: 2D, 384-well, CellTiter-Glo
Procedure, shortened: as §1

FMOC25_1 = patient-derived low-grade serous ovarian cancer cells; details: 72 h; library: FO4B; assay format: 2D, 384-well, CellTiter-Glo
Procedure, shortened: as §1

FMOC02_1 = patient-derived low-grade serous ovarian cancer cells; details: 72 h; library: FO5A; assay format: 2D, 384-well, CellTiter-Glo
Procedure, shortened: as §1

FMOC04 = patient-derived high-grade serous ovarian cancer cells; details: 72 h; library: FO5A; assay format: 2D, 384-well, CellTiter-Glo
Procedure, shortened: as §1

FMOC02_2 = patient-derived low-grade serous ovarian cancer cells; details: 72 h; library: FO5A; assay format: 2D, 384-well, CellTiter-Glo
Procedure, shortened: as §1

FMOC09 = patient-derived high-grade serous ovarian cancer cells; details: 72 h; library: FO5A; assay format: 2D, 384-well, CellTiter-Glo
Procedure, shortened: as §1

FMOC14 = patient-derived high-grade serous ovarian cancer cells; details: 72 h; library: FO5A; assay format: 2D, 384-well, CellTiter-Glo
Procedure, shortened: as §1

SMILES | drug sensitivity score (FMOC06) | drug sensitivity score (FMOC11) | drug sensitivity score (FMOC24) | drug sensitivity score (FMOC17) | drug sensitivity score (FMOC27) | drug sensitivity score (FMOC02_3) | drug sensitivity score (FMOC28) | drug sensitivity score (FMOC25_2) | drug sensitivity score (FMOC22) | drug sensitivity score (FMOC03) | drug sensitivity score (FMOC25_1) | drug sensitivity score (FMOC02_1) | drug sensitivity score (FMOC04) | drug sensitivity score (FMOC02_2) | drug sensitivity score (FMOC09) | drug sensitivity score (FMOC14)
CC(C)n1cnc2c(NCCc3ccc(O)cc3)nc(-c3csc4ccccc34)nc21 [StemRegenin 1] | 4.5 | 1 | 6.15 | 6.8 | 6.9 | 4.7 | 2.9 | 6.1 | 2.7 | 4.8 | 1.6 | 4.2 | 1.95 | 6 | 0.3 | 0.6
N#CC[C@H](C1CCCC1)n1cc(-c2ncnc3[nH]ccc23)cn1 [Ruxolitinib] | 0 | 0 | 1.6 | 0 | 0 | 0 | 0 | 0 | 0 | 0 | 0 | 0.5 | 0 | 0.3 | 0 | 0
COc1cc(Nc2ncc(F)c(Nc3ccc4c(n3)N(COP(=O)(O)O)C(=O)C(C)(C)O4)n2)cc(OC)c1OC [Fostamatinib] | 2.6 | 2.6 | 3.6 | 3.4 | 1.1 | 7.6 | 1.9 | 6.6 | 0.4 | 2.3 | 8.6 | 6.7 | 0 | 3.5 | 1.2 | 0
CCn1c(C(=O)N(C2CC2)C2CC2)cc2c3c(ncn3C)c(Nc3cc(C)n(C)n3)nc21 | 0 | 0.1 | 1.05 | 2.8 | 0.8 | 4.7 | 0.9 | 0.4 | 0 | 0.9 | 0 | 0.6 | 0 | 1.4 | 2.1 | 0
COc1ccc(CCc2nc3cc(-c4c(C)noc4C)ccc3n2C[C@H](C)N2CCOCC2)cc1Cl [SGC-CBP30] | 4.6 | 4.6 | 5.6 | 1.4 | 3.1 | 2 | 2.4 | 6.1 | 2.9 | 2.8 | 0.8 | 4.5 | 1.3 | 3.3 | 2.5 | 1
CN1CCN(C2CCN(C(=O)Nc3cc(Oc4ccc(NC(=O)C5(C(=O)Nc6ccc(F)cc6)CC5)c(F)c4)ccn3)CC2)CC1 [Golvatinib] | 0 | 0 | 3.35 | 0.2 | 0 | 2.2 | 0 | 4.3 | 0 | 0.5 | 0.9 | 1.2 | 0.7 | 1.2 | 0 | 0
CN(C)C(=O)c1cc2cnc(Nc3ccc(N4CCNCC4)cn3)nc2n1C1CCCC1 [Ribociclib] | 0.6 | 0 | 1.8 | 0.3 | 0.6 | 4.4 | 1.7 | 0.8 | 0 | 0.5 | 0 | 3.1 | 0.05 | 1.8 | 0 | 0
O=C(c1ccc(C(=O)N2CCC(N3CCCC3)CC2)c(Nc2ccccc2)c1)N1CCC(N2CCCC2)CC1 [UNC1215] | 0 | 0 | 0 | 0 | 0 | 0 | 0 | 0 | 0 | 0 | 0 | 0 | 0 | 0.3 | 0 | 0
COc1cc(N2CCN(C)CC2)ccc1Nc1nccc(-c2cn(C)c3cnccc23)n1 [AZ191] | 1.9 | 1.4 | 6.15 | 1.7 | 1.6 | 2.9 | 2.3 | 1.5 | 0.7 | 0.5 | 0 | 4 | 0.2 | 3.8 | 2.2 | 0.4
CC1=C(/C=C/C(C)=C/C=C/C(C)=C/C(=O)O)C(C)(C)CCC1 [Tretinoin] | 0.1 | 2 | 0 | 0 | 0 | 5.2 | 0 | 0.2 | 0 | 0 | 0 | 0 | 0 | 0 | 0 | 0
C=CC(=O)Nc1cccc(Nc2nc(Nc3ccc(OCCOC)cc3)ncc2F)c1 [Spebrutinib] | 0 | 0.9 | 0 | 2.3 | 2.2 | 5.7 | 1.6 | 2.9 | 0 | 0 | 0 | 3.1 | 0 | 2.9 | 1.5 | 0
CC[C@H](C)C(=O)O[C@H]1C[C@H](O)C=C2C=C[C@H](C)[C@H](CC[C@@H](O)C[C@@H](O)CC(=O)O)[C@H]21 [Pravastatin] | 0.8 | 0 | 0.35 | 0 | 0 | 0 | 0 | 0 | 0 | 0 | 0 | 0 | 0 | 0 | 0 | 0
